Experimental data: US8193191B2, “Urotensin II receptor antagonists” (Janssen Pharmaceutica N.V., priority 2006, dated 2012)
“And” between values parts separate entries of the source, which are not always exact repeats. Equal entries are not always repeated. Where two headings read alike, the source gives them in different places.

Target: T1, rat GPR14 (U-II receptor) (Rattus norvegicus, UniProt P49684)
T1 construct: expressed in transfected cells
T1 sequence (P49684 1-386): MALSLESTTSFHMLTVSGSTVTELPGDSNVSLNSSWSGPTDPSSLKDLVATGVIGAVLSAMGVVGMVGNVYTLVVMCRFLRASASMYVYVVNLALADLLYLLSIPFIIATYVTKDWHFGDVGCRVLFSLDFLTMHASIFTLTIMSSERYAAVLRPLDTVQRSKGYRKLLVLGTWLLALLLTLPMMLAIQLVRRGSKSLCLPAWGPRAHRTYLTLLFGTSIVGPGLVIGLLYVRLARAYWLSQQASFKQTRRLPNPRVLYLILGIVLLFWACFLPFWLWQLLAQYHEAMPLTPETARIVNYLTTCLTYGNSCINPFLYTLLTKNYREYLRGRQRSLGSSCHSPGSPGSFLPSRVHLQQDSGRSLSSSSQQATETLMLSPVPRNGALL
Experiment: Rat UII Calcium Mobilization FLIPR Assay
Type: cell-based
Settings: for inhibition at 10 µM / inhibition at 50 µM: CHO, 5 min, agonist-induced Ca2+ mobilization (FLIPR), CHO cells with rat UII receptor; for inhibition at 10 µM: 10 μM compound, read-out: % I @ 10; for inhibition at 50 µM: 50 μM compound, read-out: % I @ 50
Source text: To derive these cells, the complete coding sequence of rat U-II (Genbank Accession No. U32673) was amplified by nested PCR from rat heart marathon-Ready cDNA. […] The PCR products were cloned into pcDNA3 (Invitrogen) digested with EcoR I and Xba I. Clones containing rat U-II receptor were verified by complete sequencing of the U-II receptor insert to ensure a lack of PCR-introduced errors. The constructed vector was transfected into CHO cells by using lipofectamine (GIBCO BRL). CHO cells with high expression of rat U-II receptor were selected and established as stable cell lines by using G418. CHO cells were seeded at 25,000 cells per well into 96-well, black-wall, clear-bottom microtiter plates 24 h before assay. Cells in culture media (DMEM/F12 containing 15 mM HEPES, L-glutamine, pyridoxine hydrochloride; 10% fetal bovine serum; 1 mg/mL G418 sulfate; antibiotic-antimycotic; pH 7.4) were loaded with proprietary dye, from the FLIPR Calcium Assay Kit (Molecular Devices), prepared in assay buffer (Hanks Balanced Salts Solution, 20 mM HEPES, 0.1% BSA, 2.5 mM probenecid, pH 7.4), and incubated for 1 h at 37° C. Calcium mobilization determinations were performed at room temperature (23° C.).

[1] = Inhibition of Acetyl-cyclic[Cys-Phe-Trp-Lys-(2-Nal)-Cys]-NH2 induced Ca2+ mobilization (FLIPR) in CHO cells transfected with rat UII receptor, read-out: IC50
[2] = average value for the compound tested, read-out: Rat UII FLIPR Average IC50

## Cc1nn(C)c(C)c1CN1C(=O)c2cccc(N3CCN(Cc4ccccc4)CC3)c2C1=O [Cpd 23, 4-(4-benzyl-piperazin-1-yl)-2-(1,3,5-trimethyl-1H-pyrazol-4-ylmethyl)-isoindole-1,3-dione]
  inhibition at 10 µM: 62%
  inhibition at 50 µM: 101%
[1]
  IC50: 1.9 µM

## C#CC(c1ccccc1)N1CCN(c2cccc3c2C(=O)N(Cc2ccc(OC)c(OC)c2)C3=O)CC1 (stereo not shown) [Cpd 35, 2-(3,4-dimethoxy-benzyl)-4-[4-(1-phenyl-prop-2-ynyl)-piperazin-1-yl]-isoindole-1,3-dione]
  inhibition at 10 µM: 55%
  inhibition at 50 µM: 65%
[1]
  IC50: 6.3 µM

## COc1ccc(C(CCCNS(=O)(=O)C=Cc2ccccc2)N2C(=O)c3cccc(N4CCN([C@H](C)c5ccccc5)CC4)c3C2=O)cc1OC (stereo partly drawn) [Cpd 111, 2-phenyl-ethenesulfonic acid (4-(3,4-dimethoxy-phenyl)-4-{1,3-dioxo-4-[4-(1R)-(1-phenyl-ethyl)-piperazin-1-yl]-1,3-dihydro-isoindol-2-yl}-butyl)-amide]
[2]
  IC50: 0.15 µM

## O=C1c2cccc(N3CC4CCC(C3)N4Cc3ccccc3)c2C(=O)N1Cc1ccncc1 [Cpd 39, 4-(8-benzyl-3,8-diaza-bicyclo[3.2.1]oct-3-yl)-2-pyridin-4-ylmethyl-isoindole-1,3-dione]
  inhibition at 10 µM: 47%
  inhibition at 50 µM: 101%
[1]
  IC50: 8.9 µM

## COc1ccc(C(CCCNS(=O)(=O)c2cc(Cl)sc2Cl)N2C(=O)c3cccc(N4CCN([C@H](C)c5ccccc5)CC4)c3C2=O)cc1OC (stereo partly drawn) [Cpd 113, 2,5-dichloro-thiophene-3-sulfonic acid (4-(3,4-dimethoxy-phenyl)-4-{1,3-dioxo-4-[4-(1R)-(1-phenyl-ethyl)-piperazin-1-yl]-1,3-dihydro-isoindol-2-yl}-butyl)-amide]
[2]
  IC50: 2.6 µM

## COc1ccc(CCN2C(=O)c3cccc(N4CC5CCC(C4)N5Cc4ccccc4)c3C2=O)cc1OC [Cpd 25, 4-(8-benzyl-3,8-diaza-bicyclo[3.2.1]oct-3-yl)-2-[2-(3,4-dimethoxy-phenyl)-ethyl]-isoindole-1,3-dione]
  inhibition at 10 µM: 90%
  inhibition at 50 µM: 100%
[1]
  IC50: 2.8 µM

## COc1ccc(CN2C(=O)c3cccc(N4CCN(CC(C)C)CC4)c3C2=O)cc1OC [Cpd 82, 2-(3,4-dimethoxy-benzyl)-4-(4-isobutyl-piperazin-1-yl)-isoindole-1,3-dione]
[2]
  IC50: 4.7 µM

## COc1ccc(CN2C(=O)c3cccc(N4C[C@@H](C)N(C(C)c5ccccc5)[C@@H](C)C4)c3C2=O)cc1OC (stereo partly drawn) [Cpd 51, (3R,5S)-2-(3,4-dimethoxy-benzyl)-4-[3,5-dimethyl-4-(1-phenyl-ethyl)-piperazin-1-yl]-isoindole-1,3-dione]
  inhibition at 10 µM: 43%
  inhibition at 50 µM: 65%
[1]
  IC50: 18 µM

## COc1ccc(CN2C(=O)c3cccc(N4CCN(Cc5c(F)cccc5F)CC4)c3C2=O)cc1OC [Cpd 16, 4-[4-(2,6-difluoro-benzyl)-piperazin-1-yl]-2-(3,4-dimethoxy-benzyl)-isoindole-1,3-dione]
  inhibition at 10 µM: 91%
  inhibition at 50 µM: 97%
[1]
  IC50: 0.86 µM and 1.1 µM

## COc1ccc(CN2C(=O)c3cccc(N4CCN(Cc5cc(F)cc(F)c5)CC4)c3C2=O)cc1OC [Cpd 46, 4-[4-(3,5-difluoro-benzyl)-piperazin-1-yl]-2-(3,4-dimethoxy-benzyl)-isoindole-1,3-dione]
  inhibition at 10 µM: 48%
  inhibition at 50 µM: 54%
[1]
  IC50: 14 µM

## COc1ccc(CN2C(=O)c3cccc(N4CCN(Cc5cc(F)ccc5F)CC4)c3C2=O)cc1OC [Cpd 29, 4-[4-(2,5-difluoro-benzyl)-piperazin-1-yl]-2-(3,4-dimethoxy-benzyl)-isoindole-1,3-dione]
  inhibition at 10 µM: 77%
  inhibition at 50 µM: 95%
[1]
  IC50: 4.4 µM

## COc1ccc([C@H](CC(=O)O)N2C(=O)c3cccc(N4CCN([C@H](C)c5ccccc5)CC4)c3C2=O)cc1OC [Cpd 30, (S)-3-(3,4-dimethoxy-phenyl)-3-{1,3-dioxo-4-[4-(1R)-(1-phenyl-ethyl)-piperazin-1-yl]-1,3-dihydro-isoindol-2-yl}-propionic acid]
  inhibition at 10 µM: 80%
  inhibition at 50 µM: 99%
[1]
  IC50: 4.4 µM

## COc1ccc(CN2C(=O)c3cccc(N4C[C@@H](C)N(Cc5ccccc5)[C@@H](C)C4)c3C2=O)cc1OC [Cpd 42, (3R,5S)-4-(4-benzyl-3,5-dimethyl-piperazin-1-yl)-2-(3,4-dimethoxy-benzyl)-isoindole-1,3-dione]
  inhibition at 10 µM: 55%
  inhibition at 50 µM: 78%
[1]
  IC50: 10 µM

## COc1ccc(C(c2ccccc2)N2C(=O)c3cccc(N4CCN([C@H](C)c5ccccc5)CC4)c3C2=O)cc1OC (stereo partly drawn) [Cpd 49, 2-[(3,4-dimethoxy-phenyl)-phenyl-methyl]-4-[4-(1R)-(1-phenyl-ethyl)-piperazin-1-yl]-isoindole-1,3-dione]
  inhibition at 10 µM: 58%
  inhibition at 50 µM: 61%
[1]
  IC50: 16 µM

## COc1ccc(CN2C(=O)c3cccc(N4CCN(C(c5ccccc5)C5CC5)CC4)c3C2=O)cc1OC (stereo not shown) [Cpd 27, 4-[4-(cyclopropyl-phenyl-methyl)-piperazin-1-yl]-2-(3,4-dimethoxy-benzyl)-isoindole-1,3-dione]
  inhibition at 10 µM: 78%
  inhibition at 50 µM: 100%
[1]
  IC50: 3.8 µM

## COc1ccc(CN2C(=O)c3cccc(N4CC5CCC(C4)N5C(C)c4ccccc4)c3C2=O)cc1OC (stereo not shown) [Cpd 32, 2-(3,4-dimethoxy-benzyl)-4-[8-(1-phenyl-ethyl)-3,8-diaza-bicyclo[3.2.1]oct-3-yl]-isoindole-1,3-dione]
  inhibition at 10 µM: 73%
  inhibition at 50 µM: 93%
[1]
  IC50: 4.9 µM

## COc1cc(CN2C(=O)c3cccc(N4CCN(Cc5ccccc5)CC4)c3C2=O)cc(OC)c1OC [Cpd 34, 4-(4-benzyl-piperazin-1-yl)-2-(3,4,5-trimethoxy-benzyl)-isoindole-1,3-dione]
  inhibition at 10 µM: 64%
  inhibition at 50 µM: 94%
[1]
  IC50: 5.9 µM

## COc1ccc([C@@H](CCCNS(=O)(=O)c2sc3ccc(F)cc3c2C)N2C(=O)c3cccc(N4CCN([C@H](C)c5ccccc5)CC4)c3C2=O)cc1OC [Cpd 137, (R)-5-fluoro-3-methyl-benzo[b]thiophene-2-sulfonic acid (4-(3,4-dimethoxy-phenyl)-4-{1,3-dioxo-4-[4-(1R)-(1-phenyl-ethyl)-piperazin-1-yl]-1,3-dihydro-isoindol-2-yl}-butyl)-amide]
[2]
  IC50: 2.2 µM

## COc1ccc(CN2C(=O)c3c(C=CS(C)(=O)=O)ccc(N4CCN([C@H](C)c5ccccc5)CC4)c3C2=O)cc1OC [Cpd 62, 2-(3,4-dimethoxy-benzyl)-4-(2-methanesulfonyl-vinyl)-7-[4-(1R)-(1-phenyl-ethyl)-piperazin-1-yl]-isoindole-1,3-dione]
  inhibition at 10 µM: 99%
  inhibition at 50 µM: 102%
[1]
  IC50: 0.72 µM

## COc1ccc(N2C(=O)c3cccc(N4CC5CCC(C4)N5Cc4ccccc4)c3C2=O)cc1OC [Cpd 61, 4-(8-benzyl-3,8-diaza-bicyclo[3.2.1]oct-3-yl)-2-(3,4-dimethoxy-phenyl)-isoindole-1,3-dione]
  inhibition at 10 µM: 31%
  inhibition at 50 µM: 49%
[1]
  IC50: 48 µM

## COc1ccc(CN2C(=O)c3cccc(N[C@@H]4CCCC[C@H]4NCc4ccccc4)c3C2=O)cc1OC [Cpd 37, 4-(1R,2R)-(2-benzylamino-cyclohexylamino)-2-(3,4-dimethoxy-benzyl)-isoindole-1,3-dione]
  inhibition at 10 µM: 62%
  inhibition at 50 µM: 71%
[1]
  IC50: 6.9 µM

## COc1cc(CN2C(=O)c3cccc(N4CCN(CC(C)C)CC4)c3C2=O)cc(OC)c1OC [Cpd 60, 4-(4-isobutyl-piperazin-1-yl)-2-(3,4,5-trimethoxy-benzyl)-isoindole-1,3-dione]
  inhibition at 10 µM: 8%
  inhibition at 50 µM: 52%
[1]
  IC50: 42 µM

## COc1cc(CN2C(=O)c3cccc(N4CCN(Cc5ccccc5)CC4)c3C2=O)ccn1 [Cpd 58, 4-(4-benzyl-piperazin-1-yl)-2-(2-methoxy-pyridin-4-ylmethyl)-isoindole-1,3-dione]
  inhibition at 10 µM: 25%
  inhibition at 50 µM: 60%
[1]
  IC50: 32 µM

## CCOc1cc(CN2C(=O)c3cccc(N4CCN([C@H](C)c5ccccc5)CC4)c3C2=O)ccc1OC [Cpd 21, 2-(3-ethoxy-4-methoxy-benzyl)-4-[4-(1R)-(1-phenyl-ethyl)-piperazin-1-yl]-isoindole-1,3-dione]
  inhibition at 10 µM: 90%
  inhibition at 50 µM: 98%
[1]
  IC50: 1.7 µM
